Measurements reported in US20140024527A1, “HERBICIDAL PYRAZINONES” (E I DU DE NEMOURS AND COMPANY, priority 2011, published 2014).

Columns and labels:
Format in all cases: in vivo
[1] = test system: ducksalad (Heteranthera limosa); test: Test B flooded paddy test; conditions: Flood, scale 0 to 100
Source text: (§1) Plant species in the flooded paddy test consisted of rice (Oryza sativa), umbrella sedge (Cyperus difformis), ducksalad (Heteranthera limosa) and barnyardgrass (Echinochloa crus-galli) grown to the 2-leaf stage for testing. At time of treatment, test pots were flooded to 3 cm above the soil surface, treated by application of test compounds directly to the paddy water, and then maintained at that water depth for the duration of the test. Treated plants and controls were maintained in a greenhouse for 13 to 15 days, after which time all species were compared to controls and visually evaluated. Plant response ratings, summarized in Table B, are based on a scale of 0 to 100 where 0 is no effect and 100 is complete control. A dash (-) response means no test result.

rice (Oryza sativa) = test: Test B flooded paddy test; conditions: Flood, scale 0 to 100
Source text: as §1

[2] = test system: umbrella sedge (Cyperus difformis); test: Test B flooded paddy test; conditions: Flood, scale 0 to 100
Source text: as §1

[3] = test system: barnyardgrass (Echinochloa crus-galli); test: Test B flooded paddy test; conditions: Flood
Source text: as §1

[4] = test system: giant foxtail (Setaria faberii); test: Test A postemergence; conditions: 0 to 100 scale, 0 no effect, 100 complete control, approx. 10 days
Source text: (§2) Seeds of barnyardgrass (Echinochloa crus-galli), large crabgrass (Digitaria sanguinalis), giant foxtail (Setaria faberii), morningglory (Ipomoea spp.), pigweed (Amaranthus retroflexus), velvetleaf (Abutilon theophrasti), wheat (Triticum aestivum) and corn (Zea mays) were planted into a blend of loam soil and sand and treated preemergence with a directed soil spray using test chemicals formulated in a non-phytotoxic solvent mixture which included a surfactant. At the same time these species were also treated with postemergence applications of test compounds formulated in the same manner. Plants ranged in height from 2 to 10 cm and were in the one- to two-leaf stage for the postemergence treatments. Treated plants and untreated controls were maintained in a greenhouse for approximately 10 days, after which time all treated plants were compared to untreated controls and visually evaluated for injury. Plant response ratings, summarized in Table A, are based on a 0 to 100 scale where 0 is no effect and 100 is complete control.

[5] = test system: morningglory (Ipomoea spp.); test: Test A postemergence; conditions: 0 to 100 scale, 0 no effect, 100 complete control, approx. 10 days
Source text: as §2

[6] = test system: wheat (Triticum aestivum); test: Test A postemergence; conditions: 0 to 100 scale, 0 no effect, 100 complete control, approx. 10 days
Source text: as §2

[7] = test system: pigweed (Amaranthus retroflexus); test: Test A postemergence; conditions: 0 to 100 scale, 0 no effect, 100 complete control, approx. 10 days
Source text: as §2

[8] = test system: large crabgrass (Digitaria sanguinalis); test: Test A postemergence; conditions: 0 to 100 scale, 0 no effect, 100 complete control, approx. 10 days
Source text: as §2

[9] = test system: barnyardgrass (Echinochloa crus-galli); test: Test A postemergence; conditions: 0 to 100 scale, 0 no effect, 100 complete control, approx. 10 days
Source text: as §2

corn (Zea mays) [10] = test: Test A postemergence; conditions: 0 to 100 scale, 0 no effect, 100 complete control, approx. 10 days
Source text: as §2

[11] = test system: velvetleaf (Abutilon theophrasti); test: Test A postemergence; conditions: 0 to 100 scale, 0 no effect, 100 complete control, approx. 10 days
Source text: as §2

[12] = test system: giant foxtail (Setaria faberii); test: Test A preemergence; conditions: 0 to 100 scale, 0 no effect, 100 complete control, approx. 10 days
Source text: as §2

[13] = test system: morningglory (Ipomoea spp.); test: Test A preemergence; conditions: 0 to 100 scale, 0 no effect, 100 complete control, approx. 10 days
Source text: as §2

[14] = test system: wheat (Triticum aestivum); test: Test A preemergence; conditions: 0 to 100 scale, 0 no effect, 100 complete control, approx. 10 days
Source text: as §2

[15] = test system: pigweed (Amaranthus retroflexus); test: Test A preemergence; conditions: 0 to 100 scale, 0 no effect, 100 complete control, approx. 10 days
Source text: as §2

[16] = test system: large crabgrass (Digitaria sanguinalis); test: Test A preemergence; conditions: 0 to 100 scale, 0 no effect, 100 complete control, approx. 10 days
Source text: as §2

[17] = test system: barnyardgrass (Echinochloa crus-galli); test: Test A preemergence; conditions: 0 to 100 scale, 0 no effect, 100 complete control, approx. 10 days
Source text: as §2

corn (Zea mays) [18] = test: Test A preemergence; conditions: 0 to 100 scale, 0 no effect, 100 complete control, approx. 10 days
Source text: as §2

[19] = test system: velvetleaf (Abutilon theophrasti); test: Test A preemergence; conditions: 0 to 100 scale, 0 no effect, 100 complete control, approx. 10 days
Source text: as §2

[20] = 250 g ai/ha, scale 0 to 100 (0 no effect, 100 complete control)

COCCn1c(-c2cccc(F)c2)c(Cl)nc(C(=O)C2=C(O)CCCC2=O)c1=O [Compound 7, 5-chloro-6-(3-fluorophenyl)-3-[(2-hydroxy-6-oxo-1-cyclohexen-1-yl)carbonyl]-1-(2-methoxyethyl)-2(1H)pyrazinone]
Plant response rating, Ducksalad ([1]; 31 g ai/ha): 0
Plant response rating, Ducksalad ([1]; 62 g ai/ha): 40
Plant response rating, Ducksalad ([1]; 125 g ai/ha): 50
Plant response rating, Ducksalad ([1]; 250 g ai/ha): 80
Plant response rating, Rice (rice (Oryza sativa); 31 g ai/ha): 0
Plant response rating, Rice (rice (Oryza sativa); 62 g ai/ha): 0
Plant response rating, Rice (rice (Oryza sativa); 125 g ai/ha): 0
Plant response rating, Rice (rice (Oryza sativa); 250 g ai/ha): 15
Plant response rating, Sedge, Umbrella ([2]; 31 g ai/ha): 0
Plant response rating, Sedge, Umbrella ([2]; 62 g ai/ha): 20
Plant response rating, Sedge, Umbrella ([2]; 125 g ai/ha): 50
Plant response rating, Sedge, Umbrella ([2]; 250 g ai/ha): 75
Plant response rating, Barnyardgrass ([3]; 31 g ai/ha, scale 0 to 100): 0
Plant response rating, Barnyardgrass ([3]; 62 g ai/ha, scale 0 to 100): 0
Plant response rating, Barnyardgrass ([3]; 125 g ai/ha, scale 0 to 100): 10
Plant response rating, Barnyardgrass [3, 20]: 20
Plant response rating, Foxtail, Giant ([4]; 125 g ai/ha): 0
Plant response rating, Foxtail, Giant ([4]; 500 g ai/ha): 0
Plant response rating, Morningglory ([5]; 125 g ai/ha): 80
Plant response rating, Morningglory ([5]; 500 g ai/ha): 90
Plant response rating, Wheat ([6]; 125 g ai/ha): 0
Plant response rating, Wheat ([6]; 500 g ai/ha): 0
Plant response rating, Pigweed ([7]; 125 g ai/ha): 80
Plant response rating, Pigweed ([7]; 500 g ai/ha): 90
Plant response rating, Crabgrass, Large ([8]; 125 g ai/ha): 0
Plant response rating, Crabgrass, Large ([8]; 500 g ai/ha): 10
Plant response rating, Barnyardgrass ([9]; 125 g ai/ha): 20
Plant response rating, Barnyardgrass ([9]; 500 g ai/ha): 80
Plant response rating, Corn (corn (Zea mays) [10]; 125 g ai/ha): 0
Plant response rating, Corn (corn (Zea mays) [10]; 500 g ai/ha): 20
Plant response rating, Velvetleaf ([11]; 125 g ai/ha): 100
Plant response rating, Velvetleaf ([11]; 500 g ai/ha): 100
Plant response rating, Foxtail, Giant ([12]; 125 g ai/ha): 0
Plant response rating, Foxtail, Giant ([12]; 500 g ai/ha): 0
Plant response rating, Morningglory ([13]; 125 g ai/ha): 0
Plant response rating, Morningglory ([13]; 500 g ai/ha): 20
Plant response rating, Wheat ([14]; 125 g ai/ha): 0
Plant response rating, Wheat ([14]; 500 g ai/ha): 0
Plant response rating, Pigweed ([15]; 125 g ai/ha): 0
Plant response rating, Pigweed ([15]; 500 g ai/ha): 50
Plant response rating, Crabgrass, Large ([16]; 125 g ai/ha): 0
Plant response rating, Crabgrass, Large ([16]; 500 g ai/ha): 0
Plant response rating, Barnyardgrass ([17]; 125 g ai/ha): 0
Plant response rating, Barnyardgrass ([17]; 500 g ai/ha): 10
Plant response rating, Corn (corn (Zea mays) [18]; 125 g ai/ha): 0
Plant response rating, Corn (corn (Zea mays) [18]; 500 g ai/ha): 0
Plant response rating, Velvetleaf ([19]; 125 g ai/ha): 0
Plant response rating, Velvetleaf ([19]; 500 g ai/ha): 20

COCCn1c(-c2cc(F)cc(F)c2)cnc(C(=O)C2=C(O)CCCC2=O)c1=O [Compound 5, 6-(3,5-difluorophenyl)-3-[(2-hydroxy-6-oxo-1-cyclohexen-1-yl)carbonyl]-1-(2-methoxyethyl)-2(1H)-pyrazinone]
Plant response rating, Ducksalad ([1]; 31 g ai/ha): 0
Plant response rating, Ducksalad ([1]; 62 g ai/ha): 40
Plant response rating, Ducksalad ([1]; 125 g ai/ha): 60
Plant response rating, Ducksalad ([1]; 250 g ai/ha): 90
Plant response rating, Rice (rice (Oryza sativa); 31 g ai/ha): 0
Plant response rating, Rice (rice (Oryza sativa); 62 g ai/ha): 0
Plant response rating, Rice (rice (Oryza sativa); 125 g ai/ha): 10
Plant response rating, Rice (rice (Oryza sativa); 250 g ai/ha): 20
Plant response rating, Sedge, Umbrella ([2]; 31 g ai/ha): 50
Plant response rating, Sedge, Umbrella ([2]; 62 g ai/ha): 70
Plant response rating, Sedge, Umbrella ([2]; 125 g ai/ha): 90
Plant response rating, Sedge, Umbrella ([2]; 250 g ai/ha): 100
Plant response rating, Barnyardgrass ([3]; 31 g ai/ha, scale 0 to 100): 0
Plant response rating, Barnyardgrass ([3]; 62 g ai/ha, scale 0 to 100): 0
Plant response rating, Barnyardgrass ([3]; 125 g ai/ha, scale 0 to 100): 25
Plant response rating, Barnyardgrass [3, 20]: 80
Plant response rating, Foxtail, Giant ([4]; 31 g ai/ha): 30
Plant response rating, Foxtail, Giant ([4]; 125 g ai/ha): 60
Plant response rating, Foxtail, Giant ([4]; 500 g ai/ha): 80
Plant response rating, Morningglory ([5]; 31 g ai/ha): 80
Plant response rating, Morningglory ([5]; 125 g ai/ha): 90
Plant response rating, Morningglory ([5]; 500 g ai/ha): 90
Plant response rating, Wheat ([6]; 31 g ai/ha): 0
Plant response rating, Wheat ([6]; 125 g ai/ha): 30
Plant response rating, Wheat ([6]; 500 g ai/ha): 30
Plant response rating, Pigweed ([7]; 31 g ai/ha): 80
Plant response rating, Pigweed ([7]; 125 g ai/ha): 100
Plant response rating, Pigweed ([7]; 500 g ai/ha): 100
Plant response rating, Crabgrass, Large ([8]; 31 g ai/ha): 70
Plant response rating, Crabgrass, Large ([8]; 125 g ai/ha): 90
Plant response rating, Crabgrass, Large ([8]; 500 g ai/ha): 90
Plant response rating, Barnyardgrass ([9]; 31 g ai/ha): 50
Plant response rating, Barnyardgrass ([9]; 125 g ai/ha): 90
Plant response rating, Barnyardgrass ([9]; 500 g ai/ha): 90
Plant response rating, Corn (corn (Zea mays) [10]; 31 g ai/ha): 10
Plant response rating, Corn (corn (Zea mays) [10]; 125 g ai/ha): 50
Plant response rating, Corn (corn (Zea mays) [10]; 500 g ai/ha): 60
Plant response rating, Velvetleaf ([11]; 31 g ai/ha): 70
Plant response rating, Velvetleaf ([11]; 125 g ai/ha): 80
Plant response rating, Velvetleaf ([11]; 500 g ai/ha): 100
Plant response rating, Foxtail, Giant ([12]; 31 g ai/ha): 20
Plant response rating, Foxtail, Giant ([12]; 125 g ai/ha): 70
Plant response rating, Foxtail, Giant ([12]; 500 g ai/ha): 80
Plant response rating, Morningglory ([13]; 31 g ai/ha): 0
Plant response rating, Morningglory ([13]; 125 g ai/ha): 40
Plant response rating, Morningglory ([13]; 500 g ai/ha): 80
Plant response rating, Wheat ([14]; 31 g ai/ha): 0
Plant response rating, Wheat ([14]; 125 g ai/ha): 0
Plant response rating, Wheat ([14]; 500 g ai/ha): 0
Plant response rating, Pigweed ([15]; 31 g ai/ha): 40
Plant response rating, Pigweed ([15]; 125 g ai/ha): 90
Plant response rating, Pigweed ([15]; 500 g ai/ha): 90
Plant response rating, Crabgrass, Large ([16]; 31 g ai/ha): 20
Plant response rating, Crabgrass, Large ([16]; 125 g ai/ha): 100
Plant response rating, Crabgrass, Large ([16]; 500 g ai/ha): 100
Plant response rating, Barnyardgrass ([17]; 31 g ai/ha): 0
Plant response rating, Barnyardgrass ([17]; 125 g ai/ha): 50
Plant response rating, Barnyardgrass ([17]; 500 g ai/ha): 80
Plant response rating, Corn (corn (Zea mays) [18]; 31 g ai/ha): 0
Plant response rating, Corn (corn (Zea mays) [18]; 125 g ai/ha): 0
Plant response rating, Corn (corn (Zea mays) [18]; 500 g ai/ha): 0
Plant response rating, Velvetleaf ([19]; 31 g ai/ha): 30
Plant response rating, Velvetleaf ([19]; 125 g ai/ha): 70
Plant response rating, Velvetleaf ([19]; 500 g ai/ha): 80
